The values that follow come from patent US20130191933A1, “METHODS OF TREATING PAIN AND MORPHINE TOLERANCE VIA MODULATION OF HEDGEHOG SIGNALLING PATHWAY” (BOARD OF REGENTS, THE UNIVERSITY OF TEXAS SYSTEM, priority 2010, published 2013).

Assay [1] relates to Gli1, Gli2, PtchI and other Shh-target genes. The note with it: in a variety of cell types; cited from earlier work.
The target in a further assay is Smo (Homo sapiens, UniProt Q99835). The note with it: cited from earlier work.
A further assay has as its target Shh (Homo sapiens, UniProt Q15465). The settings on record: cited from earlier work.
In assay [2] the test system is Gli-mediated transcription. The note with it: in a variety of cell types (Cur-61414: cell and tissues types; Robotnikinin: also synthetic human tissue); cited from earlier work.
Assay [3] deals with rats with sciatic nerve ligation (neuropathic pain). The experiment in a line: Neuropathic pain paradigm: sciatic nerve ligation, mechanical allodynia by Von Frey filaments. It is filed as in vivo, Sprague-Dawley rats. The note with it: rats two weeks after sciatic nerve ligation; daily intrathecal (lumbar puncture) drug; sub-clinical/low dose of morphine. The protocol: Animals underwent sciatic nerve ligation as described (Chung et al.), and were then allowed to recover for two weeks. Allodynia was measured using mechanical withdrawal threshold (Von Frey hairs). […] Drugs were administered using lumbar puncture under anesthesia.
Hh signaling modulates neuropathic pain, inflammatory pain, and opioid tolerance in rats. […] With regards to neuropathic pain, animals underwent sciatic nerve ligation as previously described in Chung et al., and were then allowed to recover for two weeks. Allodynia was measured by assessing the withdrawal threshold to a mechanical stimulus (Von Frey hairs). […] Drugs were administered using lumbar puncture under anesthesia.
To test this, we examined the effects of pharmacologically blocking Smoothened activity in rodent pain models. Injection of Complete Freund's Adjuvant (CFA) into the rat hindpaw causes local inflammation, swelling, and decreased nociceptive thresholds, Stein, C., et al., A. Unilateral inflammation of the Hindpaw in rats as a Model of Prolonged Noxious Stimulation: Alterations in Behavior and Nociceptive Thresholds, Pharmacol Biochem Behav 31, […] (1988). FIG. 11 provides an inflammatory pain paradigm. Here, the hindpaws were injected with saline (sham, n=6), or CFA. […] Similarly, FIG. 10 provides a neuropathic pain paradigm. […] Mechanical allodynia was assessed using Von Frey filaments. […]

The test system of assay [4] is morphine tolerance in rats. The experiment in a line: Morphine tolerance assessed by tail flick latency (TFL). It is filed as in vivo. The protocol:
(§1) Drugs were administered daily using lumbar puncture under anesthesia. Tolerance was then assessed using tail flick latency (TFL), or the withdrawal latency of the tail to a thermal stimulus. […] On Day 8, all animals received morphine alone.
as §1
(§2) Drugs and Intermittent Lumbar Puncture: Rats were anesthetized with 2% isoflurane in oxygen. The lumbar region was shaved, prepared with Betadine solution and the intervertebral spaces widened by placing the animal on a plexiglas tube.

Assay [5] deals with rats with complete Freund's adjuvant (CFA) injection (inflammatory pain). The experiment in a line: Inflammatory pain paradigm: CFA hindpaw injection, thermal hyperalgesia by paw withdrawal latency (PWL). The settings on record: rats after CFA hindpaw injection, intrathecal (lumbar puncture) drug, Days 1-4. It counts as in vivo, Sprague-Dawley rats. The procedure: Animals underwent complete Freund's adjuvant (CFA) injection under anesthesia. Hyperalgesia was then measured using withdrawal latency of the paw to a thermal stimulus (PWL). […] Drugs were administered using lumbar puncture under anesthesia.
Hyperalgesia was then measured using withdrawal latency of the paw to a thermal stimulus (PWL). […] Drugs were administered using lumbar puncture under anesthesia..
To test this, we examined the effects of pharmacologically blocking Smoothened activity in rodent pain models. Injection of Complete Freund's Adjuvant (CFA) into the rat hindpaw causes local inflammation, swelling, and decreased nociceptive thresholds, Stein, C., et al., A. Unilateral inflammation of the Hindpaw in rats as a Model of Prolonged Noxious Stimulation: Alterations in Behavior and Nociceptive Thresholds, Pharmacol Biochem Behav 31, […] (1988). FIG. 11 provides an inflammatory pain paradigm. Here, the hindpaws were injected with saline (sham, n=6), or CFA. […] Similarly, FIG. 10 provides a neuropathic pain paradigm. […] Animals received daily intrathecal injections of vehicle (n=3) or drugs (CP, n=6; MS, n=6; or MS+CP, n=5). Mechanical allodynia was assessed using Von Frey filaments. […] All data are+/−S.E.M.
Animals: Sprague-Dawley rats (male, […]) were housed three to a cage with water and food ad libitum and kept in temperature controlled rooms on a 12:12 hour light-dark cycle, with the dark cycle beginning at 7:00 pm. Animals were habituated to the testing environment for one week prior to testing and all tests were performed in the morning. All protocols were approved by our Institutional Animal Care and Use Committee.
as §2
Complete Freund's Adjuvant (CFA) […]: Under isoflurane […], the plantar surface of the left hindpaw was cleansed and 100 μl of CFA (Sigma, St. Louis, Mo.) injected using a 25-gauge needle. Animals recovered for 24 hours prior to analgesic testing.
Paw Withdrawal Latency (PWL): PWL was measured by placing the animals in Plexiglas cages (9×22×25 cm.) on a modified Hargreaves Device, consisting of a glass surface maintained at 30° C. A stimulus lamp was focused on the tail with three measurements taken on different portions of the tail. An abrupt flick of the tail secondary to the thermal stimulus was sensed by photodiodes, and this served to terminate the stimulus and stop the timer. Animals were habituated to the device for one week prior to testing and for 30 min before each test session. The intensity of the thermal stimulus used in the TFL test was adjusted so baseline TFL was between 10-12 seconds to 20 second was used as an automatic cutoff time to avoid paw damage. The TFLs at the time points of 15, 30, and 45 minutes post-injection were measured and compared (n=6-8 per group).

Each structure is given as a SMILES string. Entries after “also recorded” stand apart in the source; their conditions may differ. Where two headings read alike, the source gives them in different places.

Smo, sequence (Q99835 28-787): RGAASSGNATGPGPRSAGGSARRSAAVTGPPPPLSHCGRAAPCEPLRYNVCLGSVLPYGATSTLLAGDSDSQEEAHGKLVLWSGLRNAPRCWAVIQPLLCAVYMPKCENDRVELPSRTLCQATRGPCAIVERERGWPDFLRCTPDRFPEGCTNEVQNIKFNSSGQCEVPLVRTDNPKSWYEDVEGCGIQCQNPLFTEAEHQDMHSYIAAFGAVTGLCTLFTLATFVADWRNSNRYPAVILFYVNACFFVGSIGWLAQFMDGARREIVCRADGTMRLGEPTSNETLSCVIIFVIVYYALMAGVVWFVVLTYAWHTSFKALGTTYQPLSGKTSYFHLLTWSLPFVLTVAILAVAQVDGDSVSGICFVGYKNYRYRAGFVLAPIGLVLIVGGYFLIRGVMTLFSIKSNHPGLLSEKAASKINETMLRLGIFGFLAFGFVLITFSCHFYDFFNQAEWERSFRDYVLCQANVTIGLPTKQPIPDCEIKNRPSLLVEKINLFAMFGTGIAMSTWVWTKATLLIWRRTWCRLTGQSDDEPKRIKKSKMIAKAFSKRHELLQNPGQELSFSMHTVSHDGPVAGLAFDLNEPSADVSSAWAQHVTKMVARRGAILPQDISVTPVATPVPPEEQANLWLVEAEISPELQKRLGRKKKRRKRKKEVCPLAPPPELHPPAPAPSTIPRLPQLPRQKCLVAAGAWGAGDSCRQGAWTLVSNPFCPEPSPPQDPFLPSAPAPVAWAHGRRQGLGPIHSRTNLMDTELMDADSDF
Shh, sequence (Q15465 24-462, species assumed): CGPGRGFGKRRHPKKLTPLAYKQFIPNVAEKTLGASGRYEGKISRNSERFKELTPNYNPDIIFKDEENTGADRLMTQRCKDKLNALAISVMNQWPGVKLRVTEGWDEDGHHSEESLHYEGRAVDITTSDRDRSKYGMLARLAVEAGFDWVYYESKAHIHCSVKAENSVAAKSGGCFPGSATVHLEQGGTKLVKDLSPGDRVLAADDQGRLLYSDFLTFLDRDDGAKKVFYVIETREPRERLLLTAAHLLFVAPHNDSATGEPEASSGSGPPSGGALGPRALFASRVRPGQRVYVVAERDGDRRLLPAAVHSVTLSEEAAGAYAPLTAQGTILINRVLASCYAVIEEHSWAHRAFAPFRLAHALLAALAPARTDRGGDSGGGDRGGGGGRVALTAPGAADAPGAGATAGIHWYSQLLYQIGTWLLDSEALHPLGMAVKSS

For the molecule `CC1=C2C(=O)[C@H]3[C@@H](CC=C4C[C@@H](O)CC[C@@]43C)[C@@H]2CC[C@]12O[C@@H]1C[C@H](C)CN[C@H]1[C@H]2C` [Jervine], in assay [1], the “transcription of Gli1, Gli2, PtchI and other Shh-target genes” value was “Inhibits transcription of Gli1, Gli2, PtchI and other Shh-target”. Besides, the entries for the “targeting / binding of Smo” value at Smo and on Smo (listed as jervine) were “Targets Smo” and “target Smo”, respectively.
On to `O=C(C[C@@H]1C/C=C/CCC(=O)O[C@H](c2ccccc2)CNC1=O)NCc1ccc(Cl)cc1` [Robotnikinin], for which the “direct binding to Shh” value on Shh is reported as “binds directly to Sonic Hedgehog; also recorded: Binds directly to Shh”. In addition, the Gli-mediated transcription entry in assay [2] is on record as “Represses Gli-medicated transcription in a variety of cell types and”.
For the molecule `CC1=C2C[C@H]3[C@@H](CC=C4C[C@@H](O)CC[C@@]43C)[C@@H]2CC[C@]12O[C@@H]1C[C@H](C)CN[C@H]1[C@H]2C` [Cyclopamine], the “analgesic effect on mechanical allodynia (mechanical withdrawal threshold, Von Frey)” value in assay [3] is recorded as “Neither morphine or cyclopamine had analgesic effects; also recorded: Neither a sub-clinical dose of morphine nor cyclopamine had analgesic effects; also recorded: neither cyclopamine nor a low dose of morphine had analgesic effects alone”. In addition, the “reversal of morphine tolerance (tail flick latency, TFL)” value in assay [4] (daily lumbar puncture, cyclopamine added to morphine from start, Day 3 or Day 5) was “completely reversed tolerance within two days; also recorded: reverses the development of morphine tolerance”. Moreover, in assay [4] (on Day 8 all animals received morphine alone), the “tolerance on Day 8 after cyclopamine was removed (TFL)” value was “animals were not tolerant on Day 8”. Besides, the “analgesic effect on thermal hyperalgesia (paw withdrawal latency, PWL)” value in assay [5] was “mild analgesic effect that plateaued”; in assay [5] (listed as cyclopamine), “mild analgesic effect that plateaued; also recorded: had no analgesic effect”. Besides, the “targeting / binding of Smo” value on Smo is reported as “Targets Smo”; at Smo (listed as cyclopamine), “target Smo”.
